Results on 34 molecules are retold here after US12029744B2, “Bicyclic heteroaryl derivatives as ectonucleotide pyrophosphatase phosphodiesterase 1 inhibitors” (Riboscience LLC, priority 2019, dated 2024).

Where a name gives a salt, the structure may show the parent alone. Where only a bound is given, the exact number is not on record here.

The target of this test is T1, ENPP1 (Homo sapiens, UniProt P22413).
T1 sequence (P22413 1-925): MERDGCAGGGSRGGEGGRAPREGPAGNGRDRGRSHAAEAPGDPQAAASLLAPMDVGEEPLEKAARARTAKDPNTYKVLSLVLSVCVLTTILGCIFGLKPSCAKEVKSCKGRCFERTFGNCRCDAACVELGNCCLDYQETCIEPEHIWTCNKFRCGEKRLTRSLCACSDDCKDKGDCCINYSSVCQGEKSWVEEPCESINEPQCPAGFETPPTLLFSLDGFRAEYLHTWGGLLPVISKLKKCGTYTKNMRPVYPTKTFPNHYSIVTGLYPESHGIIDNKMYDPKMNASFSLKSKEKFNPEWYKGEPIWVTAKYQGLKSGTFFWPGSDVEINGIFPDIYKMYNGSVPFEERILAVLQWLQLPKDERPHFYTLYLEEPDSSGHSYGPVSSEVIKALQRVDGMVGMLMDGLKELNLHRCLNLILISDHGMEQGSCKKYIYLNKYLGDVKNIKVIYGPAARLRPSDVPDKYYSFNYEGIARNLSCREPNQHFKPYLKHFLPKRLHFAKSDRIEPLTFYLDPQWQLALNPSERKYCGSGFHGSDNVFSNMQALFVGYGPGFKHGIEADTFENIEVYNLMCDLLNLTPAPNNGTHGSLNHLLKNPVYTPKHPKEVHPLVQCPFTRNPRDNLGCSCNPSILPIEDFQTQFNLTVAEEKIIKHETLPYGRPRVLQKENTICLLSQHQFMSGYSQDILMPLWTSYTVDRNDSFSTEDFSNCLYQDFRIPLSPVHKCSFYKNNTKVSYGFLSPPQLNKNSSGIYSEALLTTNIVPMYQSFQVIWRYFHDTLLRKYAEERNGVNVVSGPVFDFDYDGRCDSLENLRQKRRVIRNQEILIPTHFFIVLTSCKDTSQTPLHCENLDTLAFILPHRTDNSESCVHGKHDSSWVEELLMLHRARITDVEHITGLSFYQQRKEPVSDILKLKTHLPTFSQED
As to the kind of experiment: Measurement of pNP-TMP hydrolysis by ENPP1 (enzyme activity assay, absorbance at 405 nm). In kind it is biochemical. The following applies: substrate pNP-TMP 500 μM, KM 232 μM; Ki from IC50 by Cheng-Prusoff; read-out: Ki (pNP-TMP). As to the method: Measurement of pNP-TMP Hydrolysis by ENPP1
p-Nitrophenyl thymidine 5′-monophosphate (pNP-TMP) is a synthesized substrate for ENPP1. The ENPP1 enzyme activity assay with pNP-TMP substrate was conducted as follows:
Incubation of ENPP1 with compounds was set at 25° C. for 10 min. […] For each compound dilution, wells with assay buffer (50 mM Tris-HCl, pH8.8, 250 mM NaCl, 0.1 mg/ml BSA, 1% DMSO) only but no ENPP1 were included as controls for subtraction of test compound derived absorbance at 405 nm.
Absorbance at 405 nm was recorded immediately in kinetic mode by PerkinElmer 2300 Enspire multimode plate reader.
For each inhibitor, the specific ENPP1 activity was calculated using the following equation: ENPP1 activity (pmol/min/μg)=Adjusted Vmax (OD405 nm/min)×conversion factor (pmol/OD405 nm)/amount of enzyme (μg)
Adjusted Vmax=V0×(Km+(S))/(S).
V0=(OD405 nm with ENPP1−OD405 nm ENPP1 blank)/minutes. OD405 nm was plotted, with blank subtracted, against time (minutes), the initial linear rate is V0. […]
The slope is the conversion factor. The percent ENPP1 activity for each sample was calculated using the following equation: % enzyme activity=sample enzyme activity/MAX Activity×100%.
To determine the IC50 for each compound, compound concentration values and percent enzyme activity values were inserted into GraphPad Prism (GraphPad Prism version 7.0 for Windows, GraphPad Software, La Jolla California USA, www.graphpad.com), and Prism's Transform analysis was used to convert the x-axis values (compound concentration) to logarithms. A sigmoidal variable slope nonlinear regression analysis was performed using the following equation: Y=Bottom+(Top−Bottom)/(1+10^[…])).
Turning to `COc1cc2ncn(Cc3ccc(B(O)O)cc3)c2cc1OC` [Compound 1, 4-((5,6-dimethoxy-1,3-benzodiazol-1-yl)methyl)phenylboronic acid], the Ki (as a rule, a measure of affinity in units of concentration, obtained from inhibition or displacement) was less than 100 nM.

Consider `O=c1[nH]cnc2c1ncn2Cc1ccc(B(O)O)cc1` [Compound 3, 4-((6-oxo-1H-purin-9-yl)methyl)phenylboronic acid], for which the Ki is less than 1000 nM.

In the case of `Nc1nc2c(ncn2Cc2ccc(B(O)O)cc2)c(=O)[nH]1` [Compound 5, 4-((2-amino-6-oxo-1H-purin-9-yl)methyl)phenylboronic acid], the Ki was less than 100 nM.

For `OB(O)c1ccc(Cn2ccc3c(O)nccc32)cc1` [Compound 9, (4-((4-hydroxy-1H-pyrrolo[3,2-c]pyridin-1-yl)methyl)phenyl)boronic acid], the Ki was less than 10 nM.

Regarding `N#Cc1ccc2c(c1)ncn2Cc1ccc(B(O)O)cc1` [Compound 15, 4-((5-cyano-1,3-benzodiazol-1-yl)methyl)phenylboronic acid], the Ki is less than 10 nM.

Turning to `NC(=O)c1ccc2c(c1)ncn2Cc1ccc(B(O)O)cc1` [Compound 17, 4-((5-carbamoyl-1,3-benzodiazol-1-yl)methyl)phenylboronic acid trifluoroacetic acid salt], the Ki is less than 10 nM.

As for `N#Cc1ccc2c(c1)ncn2Cc1ccc(P(=O)(O)O)cc1` [Compound 24, (4-((5-cyano-1H-benzo[d]imidazol-1-yl)methyl)phenyl)phosphonic acid], the Ki was less than 1000 nM.

In the case of `COc1cc2c(cc1C(N)=O)ncn2Cc1ccc(B(O)O)cc1` [Compound 32, 4-((5-carbamoyl-6-methoxy-1,3-benzodiazol-1-yl)methyl)phenylboronic acid], the Ki was less than 100 nM.

For the molecule `NC(=O)c1ccc2c(cnn2Cc2ccc(B(O)O)cc2)c1` [Compound 34, 4-((5-carbamoylindazol-1-yl)methyl)phenylboronic acid], the Ki was less than 100 nM.

With `Cc1nc2cc(C(N)=O)ccc2n1Cc1ccc(B(O)O)cc1` [Compound 36, (4-((5-carbamoyl-2-methyl-1H-benzo[d]imidazol-1-yl)methyl)phenyl)boronic acid], the Ki is less than 10 nM.

`CC(C)c1nc2cc(C(N)=O)ccc2n1Cc1ccc(B(O)O)cc1` [Compound 37, 4-((5-carbamoyl-2-isopropyl-1,3-benzodiazol-1-yl)methyl)phenylboronic acid]: the Ki was less than 10 nM.

Turning to `COC(=O)c1ccc2c(c1)ncn2Cc1ccc(B(O)O)cc1` [Compound 41, 2,2,2-trifluoroacetic acid--(4-((5-(methoxycarbonyl)-1H-benzo[d]imidazol-1-yl)methyl)phenyl)boronic acid (1/1)], the Ki was less than 100 nM.

As to `NC(=O)c1ccc2c(c1)ncn2Cc1ccc(P(=O)(O)O)cc1` [Compound 49, 4-((5-carbamoyl-1,3-benzodiazol-1-yl)methyl)phenylphosphonic acid], the Ki was less than 1000 nM.

On to `O=P(O)(O)c1ccc(Cn2ccc3c(O)nccc32)cc1` [Compound 56, (4-((4-hydroxy-1H-pyrrolo[3,2-c]pyridin-1-yl)methyl)phenyl)phosphonic acid], for which the Ki was less than 100 nM.

With `NC(=O)c1ccc2c(ncn2Cc2ccc(B(O)O)cc2)n1` [Compound 59, 4-((5-carbamoylimidazo[4,5-b]pyridin-1-yl)methyl)phenylboronic acid], the Ki was less than 10 nM.

With `O=c1[nH]cnc2c1c(F)cn2Cc1ccc(B(O)O)cc1` [Compound 63, (4-((5-fluoro-4-oxo-3,4-dihydro-7H-pyrrolo[2,3-d]pyrimidin-7-yl)methyl)phenyl) boronic acid], the Ki is less than 100 nM.

Consider `O=P(O)(O)c1ccc(Cn2ncc3c(O)nccc32)cc1` [Compound 64, 4-((4-hydroxypyrazolo[4,3-c]pyridin-1-yl)methyl)phenylphosphonic acid], for which the inhibitory constant (Ki) is less than 100 nM.

Take `NC(=O)c1ccc2c(cnn2Cc2ccc(P(=O)(O)O)cc2)c1` [Compound 65, 4-((5-carbamoylindazol-1-yl)methyl) phenylphosphonic acid]: the Ki was less than 100 nM.

On to `N#Cc1ccc2c(ncn2Cc2ccc(B(O)O)cc2)n1` [Compound 70, 4-((5-cyanoimidazo[4,5-b]pyridin-1-yl)methyl)phenylboronic acid], for which the Ki is less than 10 nM.

Regarding `CCc1nc2c(O)nccc2n1Cc1ccc(B(O)O)cc1` [Compound 73, 4-((2-ethyl-4-hydroxyimidazo [4,5-c]pyridin-1-yl)methyl) phenylboronic acid], the Ki is less than 100 nM.

Take `CCc1nc2ccnc(O)c2n1Cc1ccc(B(O)O)cc1` [Compound 74, 4-((2-ethyl-4-hydroxyimidazo[4,5-c]pyridin-3-yl)methyl)phenylboronic acid]: the Ki was less than 1000 nM.

Consider `CC(C)c1nc2c(O)nccc2n1Cc1ccc(B(O)O)cc1` [Compound 75, 4-((4-hydroxy-2-isopropylimidazo[4,5-c]pyridin-1-yl)methyl) phenylboronic acid], for which the Ki is less than 100 nM.

Regarding `Cc1cc2nc(C(N)=O)ccc2n1Cc1ccc(B(O)O)cc1` [Compound 77, 4-((5-carbamoyl-2-methylpyrrolo[3,2-b]pyridin-1-yl)methyl) phenylboronic acid], the Ki is less than 10 nM.

`COc1cccc2c1nc(C)n2Cc1ccc(B(O)O)cc1` [Compound 95, 4-((4-methoxy-2-methyl-1,3-benzodiazol-1-yl)methyl) phenylboronic acid]: the Ki is less than 100 nM.

Turning to `NC(=O)c1nccc2c1ncn2Cc1ccc(B(O)O)cc1` [Compound 96, 4-((4-carbamoylimidazo[4,5-c]pyridin-1-yl)methyl)phenylboronic acid], the Ki was less than 10 nM.

As to `COc1nccc2c1cnn2Cc1ccc(B(O)O)cc1` [Compound 98, 4-((4-methoxypyrazolo [4,3-c]pyridin-1-yl)methyl) phenylboronic acid], the Ki is less than 1000 nM.

As for `NC(=O)c1ccc2c(ncn2Cc2ccc(B(O)O)cc2)c1N` [Compound 105, 4-((4-amino-5-carbamoyl-1,3-benzodiazol-1-yl)methyl)phenylboronic acid], the Ki is less than 100 nM.

`CCc1cc2c(O)nccc2n1Cc1ccc(B(O)O)cc1` [Compound 106, 4-((2-ethyl-4-hydroxypyrrolo[3,2-c]pyridin-1-yl)methyl)phenylboronic acid]: the Ki was less than 10 nM.

Turning to `CC(C)c1cc2c(O)nccc2n1Cc1ccc(B(O)O)cc1` [Compound 107, 4-((4-hydroxy-2-isopropylpyrrolo[3,2-c]pyridin-1-yl)methyl)phenylboronic acid], the Ki is less than 100 nM.

As to `COc1ccc2c(ncn2Cc2ccc(B(O)O)cc2)n1` [Compound 125, 4-((5-methoxyimidazo[4,5-b]pyridin-1-yl)methyl)phenylboronic acid], the inhibition constant Ki is less than 10 nM.

As for `OB(O)c1ccc(Cn2cnc3nc(O)ccc32)cc1` [Compound 127], the Ki was less than 10 nM.

As for `OB(O)c1ccc(Cn2cnc3c(C(F)F)cccc32)cc1` [Compound 130, 4-((4-(difluoromethyl)-1,3-benzodiazol-1-yl)methyl)phenylboronic acid], the Ki was less than 1000 nM.

Consider `O=c1[nH]cnc2c1c(F)cn2Cc1ccc(P(=O)(O)O)cc1` [Compound 134, 4-((5-fluoro-4-oxo-3H-pyrrolo[2,3-d]pyrimidin-7-yl)methyl)phenylphosphonic acid], for which the Ki is less than 100 nM.

As to `Cc1nc2cc(C(N)=O)ccc2n1Cc1ccc(P(=O)(O)O)cc1` [Compound 136, 4-((5-carbamoyl-2-methyl-1,3-benzodiazol-1-yl)methyl)phenylphosphonic acid], the Ki was less than 100 nM.
